Results taken from ChEMBL document CHEMBL3886620, “Substituted imidazopyrazines as Akt kinase inhibitors” (2016).

What was measured:
[1] = molecular target: RAC-beta serine/threonine-protein kinase (Homo sapiens, UniProt P31751); experiment: (§1) Akt2 TR-FRET assay: His-tagged human recombinant kinase full-length Akt2 expressed in insect cells and activated by PDK1 was purchased from Invitrogen (part number PV 3975). As substrate for the kinase reaction the biotinylated peptide biotin-Ahx-KKLNRTLSFAEPG (C-terminus in amide form) was used which can be purchased e.g. from the company Biosynthan GmbH (Berlin-Buch, Germany). For the assay 50 nl of a 100 fold concentrated solution of the test compound in DMSO was pipetted into a black low volume 384 well microtiter plate (Greiner Bio-One, Frickenhausen, Germany), 2 μl of a solution of Akt2 in assay buffer [50 mM TRIS/HCl pH 7.5, 5 mM MgCl2, 1 mM dithiothreitol, 0.02% (v/v) Triton X-100 (Sigma)] were added and the mixture was incubated for 15 min at 22 °C. to allow prebinding of the test compounds to the enzyme before the start of the kinase reaction. Then the kinase reaction was started by the addition of 3 μl of a solution of adenosine-tri-phosphate (ATP, 16.7 μM=>final conc. in the 5 μl assay volume is 10 μM) and substrate (1.67 μM=>final conc. in the 5 μl assay volume is 1 μM) in assay buffer and the resulting mixture was incubated for a reaction time of 60 min at 22 °C. […]
Sequence of RAC-beta serine/threonine-protein kinase (P31751 whole entry): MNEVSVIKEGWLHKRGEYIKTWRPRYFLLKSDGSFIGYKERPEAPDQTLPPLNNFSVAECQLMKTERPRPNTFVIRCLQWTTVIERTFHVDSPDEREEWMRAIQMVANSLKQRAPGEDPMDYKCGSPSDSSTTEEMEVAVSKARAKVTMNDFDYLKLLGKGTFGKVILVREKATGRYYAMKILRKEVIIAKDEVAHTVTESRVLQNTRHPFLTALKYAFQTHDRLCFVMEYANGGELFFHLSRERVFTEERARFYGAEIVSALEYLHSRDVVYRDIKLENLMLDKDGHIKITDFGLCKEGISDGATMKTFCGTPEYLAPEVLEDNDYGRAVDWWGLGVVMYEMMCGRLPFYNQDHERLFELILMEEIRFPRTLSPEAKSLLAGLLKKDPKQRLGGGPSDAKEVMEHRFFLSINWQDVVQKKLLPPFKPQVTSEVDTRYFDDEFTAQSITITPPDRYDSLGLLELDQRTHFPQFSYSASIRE

[2] = molecular target: RAC-alpha serine/threonine-protein kinase (Homo sapiens, UniProt P31749); experiment: as §1, with “Akt1 TR-FRET” for “Akt2 TR-FRET”, “full-length Akt1” for “full-length Akt2”, “cells” for “cells and activated by PDK1”, “purchased form” for “purchased from”, “PV 3599).” for “PV 3975).”, “of Akt1” for “of Akt2”
Sequence of RAC-alpha serine/threonine-protein kinase (P31749 whole entry): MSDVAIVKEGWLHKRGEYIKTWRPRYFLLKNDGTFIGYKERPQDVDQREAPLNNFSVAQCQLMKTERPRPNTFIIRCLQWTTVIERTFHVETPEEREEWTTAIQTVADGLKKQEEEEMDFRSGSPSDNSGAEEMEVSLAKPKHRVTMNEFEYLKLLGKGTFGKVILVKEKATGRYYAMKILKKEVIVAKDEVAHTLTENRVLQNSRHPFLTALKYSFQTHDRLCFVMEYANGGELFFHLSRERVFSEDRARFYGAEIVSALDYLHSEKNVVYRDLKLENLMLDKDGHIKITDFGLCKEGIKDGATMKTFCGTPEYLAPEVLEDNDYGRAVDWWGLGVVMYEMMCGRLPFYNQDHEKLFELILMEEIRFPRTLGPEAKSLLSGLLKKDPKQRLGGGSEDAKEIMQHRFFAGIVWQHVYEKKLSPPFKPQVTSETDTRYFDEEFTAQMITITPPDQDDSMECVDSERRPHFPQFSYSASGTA

IC50 [1]: 130 nM
IC50 [2]: 100 nM
SMILES: CCOC(=O)c1cn2c(-c3ccccc3)c(-c3ccc(C4(N)CCC4)cc3)nc2cn1
